In patent US12630547B2, “RAS protein degraders, pharmaceutical compositions thereof, and their therapeutic applications” (BioTheryX, Inc., priority 2019, dated 2026):

Test system: MOLM-13 cells
Assay: Cell viability assay (CELLTITER-GLO), MOLM-13 cells
Format: cell-based
Conditions: Homo sapiens, MOLM-13, 72 h; Table 2; compound at 10 μM, 3 days; read-out: Effect on MOLM-13 cell viability (% DMSO)
Description: MOLM-13 cells, MV-4-11 cells, H23, and H358 cells were independently cultured in RPMI 1640 media supplemented with 10% fetal bovine serum, streptomycin and penicillin. The cells were plated in white walled 96-well plates at 4,000 cells/well. The cells were incubated in DMSO (control) or a compound for 3 days at 37° C. under 5% CO2. A CELLTITER-GLO® reagent (100 μL) was then added to each well. After a 10 min incubation with shaking, luminescence was measured using an ENVISION® multimode plate reader.
In Tables 1 and 2, each compound was tested at 10 μM; and in Table 3, each compound was tested at 1 μM. In Tables 1 to 3, the cell viability values as % DMSO are reported as “A,” “B,” “C,” or “D;” where “A” represents a % viability value of less than 10%; “B” represents a % viability value of no less than 10% and less than 25%; “C” represents a % viability value of no less than 25% and less than 50%; and “D” represents a % viability value of no less than 50%. Compound A is […]

Row | SMILES | viability at 10 µM [%]
1 | C=CC(=O)N1CC(N2Cc3ccc(-c4cc(O)cc5ccccc45)cc3N(CCOCCOCCC(=O)NCCOc3cccc4c3C(=O)N(C3CCC(=O)NC3=O)C4=O)C2=O)C1 (stereo not drawn) [Compound 11, 3-(2-(2-(3-(1-Acryloylazetidin-3-yl)-7-(3-hydroxynaphthalen-1-yl)-2-oxo-3,4-dihydroquinazolin-1(2H)-yl)ethoxy)ethoxy)-N-(2-((2-(2,6-dioxopiperidin-3-yl)-1,3-dioxoisoindolin-4-yl)oxy)ethyl)propanamide] | ≥ 50
2 | CCC(=O)N1CC(N2Cc3ccc(-c4cc(O)cc5ccccc45)cc3N(CCOCCOCCOCCNc3cccc4c3C(=O)N(C3CCC(=O)NC3=O)C4=O)C2=O)C1 (stereo not drawn) [Compound 12, 2-(2,6-Dioxopiperidin-3-yl)-4-((2-(2-(2-(2-(7-(3-hydroxynaphthalen-1-yl)-2-oxo-3-(1-propionylazetidin-3-yl)-3,4-dihydroquinazolin-1(2H)-yl)ethoxy)ethoxy)ethoxy)ethyl)amino)-isoindoline-1,3-dione] | ≥ 50
3 | C=CC(=O)N1CCN(c2ncnc3c(F)c(-c4c(O)cccc4F)c(Cl)cc23)C(CC(=O)NCCCCCNC(=O)NCc2cc3c(s2)C(=O)N(C2CCC(=O)NC2=O)C3)C1 (stereo not drawn) [Compound 13, 2-(4-Acryloyl-1-(6-chloro-8-fluoro-7-(2-fluoro-6-hydroxyphenyl)quinazolin-4-yl)piperazin-2-yl)-N-(5-(3-((5-(2,6-dioxopiperidin-3-yl)-6-oxo-5,6-dihydro-4H-thieno[2,3-c]pyrrol-2-yl)methyl)ureido)pentyl)acetamide] | ≥ 50
4 | C=CC(=O)N1CC(c2nc3ccc(-c4cc(O)cc5ccccc45)cc3c(=O)n2CCOCCOCCNCc2ccc(OCc3scc4c3CN([C@H]3CCC(=O)NC3=O)C4=O)cc2)C1 [Compound 14, (S)-3-(1-((4-(((2-(2-(2-(2-(1-Acryloylazetidin-3-yl)-6-(3-hydroxynaphthalen-1-yl)-4-oxoquinazolin-3(4H)-yl)ethoxy)ethoxy)ethyl)amino)methyl)phenoxy)methyl)-4-oxo-4H-thieno[3,4-c]pyrrol-5(6H)-yl)piperidine-2,6-dione] | ≥ 50
5 | C=CC(=O)N1CC(c2nc3ccc(-c4cc(O)cc5ccccc45)cc3c(=O)n2CCNCc2ccc(OCc3scc4c3CN([C@H]3CCC(=O)NC3=O)C4=O)cc2)C1 [Compound 15, (S)-3-(1-((4-(((2-(2-(1-Acryloylazetidin-3-yl)-6-(3-hydroxynaphthalen-1-yl)-4-oxoquinazolin-3(4H)-yl)ethyl)amino)methyl)phenoxy)methyl)-4-oxo-4H-thieno[3,4-c]pyrrol-5(6H)-yl)piperidine-2,6-dione] | ≥ 50
6 | C=CC(=O)N1CC(N2Cc3ccc(-c4cc(O)cc5ccccc45)cc3N(CCCCNCc3ccc(OCc4scc5c4CN([C@H]4CCC(=O)NC4=O)C5=O)cc3)C2=O)C1 [Compound 16, (S)-3-(1-((4-(((4-(3-(1-Acryloylazetidin-3-yl)-7-(3-hydroxynaphthalen-1-yl)-2-oxo-3,4-dihydroquinazolin-1(2H)-yl)butyl)amino)methyl)phenoxy)methyl)-4-oxo-4H-thieno[3,4-c]pyrrol-5(6H)-yl)piperidine-2,6-dione] | ≥ 50
7 | C=CC(=O)N1CC(c2nc3ccc(-c4cc(O)cc5ccccc45)cc3c(=O)n2CC(=O)NCCOCCOCCOCCNc2cccc3c2C(=O)N(C2CCC(=O)NC2=O)C3=O)C1 (stereo not drawn) [Compound 17, 2-(2-(1-Acryloylazetidin-3-yl)-6-(3-hydroxynaphthalen-1-yl)-4-oxoquinazolin-3(4H)-yl)-N-(2-(2-(2-(2-((2-(2,6-dioxopiperidin-3-yl)-1,3-dioxoisoindolin-4-yl)amino)ethoxy)ethoxy)ethoxy)-ethyl)acetamide] | ≥ 50
8 | C=CC(=O)N1CC(c2nc3ccc(-c4cc(O)cc5ccccc45)cc3c(=O)n2CCNCc2ccc(OCc3scc4c3CN(C3CCC(=O)NC3=O)C4=O)cc2)C1 (stereo not drawn) [Compound 18, 3-(1-((4-(((2-(2-(1-Acryloylazetidin-3-yl)-6-(3-hydroxynaphthalen-1-yl)-4-oxoquinazolin-3(4H)-yl)ethyl)amino)methyl)phenoxy)methyl)-4-oxo-4H-thieno[3,4-c]pyrrol-5(6H)-yl)piperidine-2,6-dione] | ≥ 50
9 | C=CC(=O)N1CC(N2Cc3ccc(-c4cc(O)cc5ccccc45)cc3N(CCCCNCc3ccc(OCc4scc5c4CN(C4CCC(=O)NC4=O)C5=O)cc3)C2=O)C1 (stereo not drawn) [Compound 19, 3-(1-((4-(((4-(3-(1-Acryloylazetidin-3-yl)-7-(3-hydroxynaphthalen-1-yl)-2-oxo-3,4-dihydroquinazolin-1(2H)-yl)butyl)amino)methyl)phenoxy)methyl)-4-oxo-4H-thieno[3,4-c]pyrrol-5(6H)-yl)piperidine-2,6-dione] | ≥ 50
10 | C=CC(=O)N1CC(c2nc3ccc(-c4cc(O)cc5ccccc45)cc3c(=O)n2CCOCCNCc2ccc(OCc3scc4c3CN(C3CCC(=O)NC3=O)C4=O)cc2)C1 (stereo not drawn) [Compound 21, 3-(1-((4-(((2-(2-(2-(1-Acryloylazetidin-3-yl)-6-(3-hydroxynaphthalen-1-yl)-4-oxoquinazolin-3(4H)-yl)ethoxy)ethyl)amino)methyl)phenoxy)methyl)-4-oxo-4H-thieno[3,4-c]pyrrol-5(6H)-yl)piperidine-2,6-dione] | ≥ 50

Same assay, conditions: Homo sapiens, MOLM-13, 72 h; Table 3; compound at 1 μM, 3 days; read-out: Effect on MOLM-13 cell viability (% DMSO)

Row | SMILES | viability at 1 µM [%]
11 | C=CC(=O)N1CCN(c2ncnc3c(F)c(-c4c(F)cccc4OCCOCCOCCC(=O)NCCOc4cccc5c4C(=O)N(C4CCC(=O)NC4=O)C5=O)c(Cl)cc23)CC1 (stereo not drawn) [Compound 3, 3-(2-(2-(2-(4-(4-Acryloylpiperazin-1-yl)-6-chloro-8-fluoroquinazolin-7-yl)-3-fluorophenoxy)ethoxy)ethoxy)-N-(2-((2-(2,6-dioxopiperidin-3-yl)-1,3-dioxoisoindolin-4-yl)oxy)ethyl)propanamide] | ≥ 50
12 | CCC(=O)N1CC(N2Cc3ccc(-c4cc(O)cc5ccccc45)cc3N(CCNCc3ccc(OCc4scc5c4CN(C4CCC(=O)NC4=O)C5=O)cc3)C2=O)C1 (stereo not drawn) [Compound 4, 3-(1-((4-(((2-(7-(3-Hydroxynaphthalen-1-yl)-2-oxo-3-(1-propionylazetidin-3-yl)-3,4-dihydroquinazolin-1(2H)-yl)ethyl)amino)methyl)phenoxy)methyl)-4-oxo-4H-thieno[3,4-c]pyrrol-5(6H)-yl)piperidine-2,6-dione] | 10 to 25
13 | CCC(=O)N1CC(N2Cc3ccc(-c4cc(O)cc5ccccc45)cc3N(CCOCCNCc3ccc(OCc4scc5c4CN(C4CCC(=O)NC4=O)C5=O)cc3)C2=O)C1 (stereo not drawn) [Compound 5, 3-(1-((4-(((2-(2-(7-(3-Hydroxynaphthalen-1-yl)-2-oxo-3-(1-propionylazetidin-3-yl)-3,4-dihydroquinazolin-1(2H)-yl)ethoxy)ethyl)amino)methyl)phenoxy)methyl)-4-oxo-4H-thieno[3,4-c]pyrrol-5(6H)-yl)piperidine-2,6-dione] | ≥ 50
14 | CCC(=O)N1CCN(c2ncnc3c(F)c(-c4c(F)cccc4OCCOCCOCCC(=O)NCCNc4cccc5c4C(=O)N(C4CCC(=O)NC4=O)C5=O)c(Cl)cc23)CC1 (stereo not drawn) [Compound 6, 3-(2-(2-(2-(6-Chloro-8-fluoro-4-(4-propionylpiperazin-1-yl)quinazolin-7-yl)-3-fluorophenoxy)ethoxy)ethoxy)-N-(2-((2-(2,6-dioxopiperidin-3-yl)-1,3-dioxoisoindolin-4-yl)amino)ethyl)propanamide] | ≥ 50
15 | CCC(=O)N1CC(N2Cc3ccc(-c4cc(O)cc5ccccc45)cc3N(CCOCCOCCC(=O)NCCOc3cccc4c3C(=O)N(C3CCC(=O)NC3=O)C4=O)C2=O)C1 (stereo not drawn) [Compound 7, N-(2-((2-(2,6-Dioxopiperidin-3-yl)-1,3-dioxoisoindolin-4-yl)oxy)ethyl)-3-(2-(2-(7-(3-hydroxynaphthalen-1-yl)-2-oxo-3-(1-propionylazetidin-3-yl)-3,4-dihydroquinazolin-1(2H)-yl)ethoxy)ethoxy)propanamide] | ≥ 50
16 | CCC(=O)N1CCN(c2ncnc3c(F)c(-c4c(F)cccc4OCCOCCOCCC(=O)NCCOc4cccc5c4C(=O)N(C4CCC(=O)NC4=O)C5=O)c(Cl)cc23)CC1 (stereo not drawn) [Compound 8, 3-(2-(2-(2-(6-Chloro-8-fluoro-4-(4-propionylpiperazin-1-yl)quinazolin-7-yl)-3-fluorophenoxy)ethoxy)ethoxy)-N-(2-((2-(2,6-dioxopiperidin-3-yl)-1,3-dioxoisoindolin-4-yl)oxy)ethyl)propanamide] | ≥ 50
17 | CCC(=O)N1CCN(c2ncnc3c(F)c(-c4c(F)cccc4OCCOCCOCCOCCNc4cccc5c4C(=O)N(C4CCC(=O)NC4=O)C5=O)c(Cl)cc23)CC1 (stereo not drawn) [Compound 9, 4-((2-(2-(2-(2-(2-(6-Chloro-8-fluoro-4-(4-propionylpiperazin-1-yl)quinazolin-7-yl)-3-fluorophenoxy)ethoxy)ethoxy)ethoxy)ethyl)amino)-2-(2,6-dioxopiperidin-3-yl)isoindoline-1,3-dione] | ≥ 50
18 | C=CC(=O)N1CC(N2Cc3ccc(-c4cc(O)cc5ccccc45)cc3N(CCOCCC(=O)NCCOc3cccc4c3C(=O)N(C3CCC(=O)NC3=O)C4=O)C2=O)C1 (stereo not drawn) [Compound 10, 3-(2-(3-(1-Acryloylazetidin-3-yl)-7-(3-hydroxynaphthalen-1-yl)-2-oxo-3,4-dihydroquinazolin-1(2H)-yl)ethoxy)-N-(2-((2-(2,6-dioxopiperidin-3-yl)-1,3-dioxoisoindolin-4-yl)oxy)ethyl)propanamide] | ≥ 50
